Measurements published in patent publication US5264148A, “Moisture scavenging oxazolidines” (Angus Cheical Company, priority 1990, dated 1993).
Like-named read-outs stand apart in the source and are kept apart here.

What was measured:
[1] = Comparison of water-scavenging activity in pigment millbase (GC determination of remaining water)
From the text: The water-scavenging activity of 4-ethyl-2-isopropyl oxazolidine (BBA), 1-aza-3,7-dioxo-2,8-diisopropyl-5-ethylbicyclo (3.3.0) octane (EBA), p-toluenesulfonyl isocyanate (PTSI), isophorone diisocyanate (IPDI), and sodium potassium aluminosilicate (SPAS) were compared in pigment millbase formulation. Formulations of this type are representative of pigment formulations used in moisture-curing urethane coating systems. The following millbase formulation was used: […]
The following procedure was used to prepare the millbase. All the materials were weighed out and added under agitation into a pot. Soft Resin P-65, obtained from Mobay Corp., is a 65% synthetic (non-reactive polyester) resin in solvent Naphtha 100 and is employed as a grind aid. CAB 551, obtained from Eastman Chemical Products, Inc., Kingsport, Tenn., is cellulose acetate butyrate ester and was employed as a rheology aid. CAB 551 was dissolved in PMA. PMA is propylene glycol monomethyl ether acetate obtained from Eastman Chemical Products, Inc. The solution of CAB 551 in PMA included 33% CAB 551 by weight. Anti-Terra-U is a wetting and dispersing additive obtained from BYK-Chemie U.S.A., Wallingford Conn., and is a solution of a salt of unsaturated polyamine amides and higher molecular weight acidic esters. Ektasolve-EEP, obtained from Eastman Chemicals Products, Inc., is ethyl-3-ethoxypropionate stabilized with 2,6-di-tert-butyl- p-cresol, and was employed as a solvent. M-P-A 2000X, obtained from Rheox, Inc., Hightstown, N.J., was employed as an antisettling agent. R-960-TiO2 is a titanium dioxide pigment obtained from E.I. du Pont Nemours & Co., Inc., Wilmington, Del.
Once the ingredients were added to the vessel they were continuously agitated until a 7 Hegman grind value was obtained for the mixture. The millbase was then heated to 60° C. A portion of the mixture was removed, and the percent of water remaining was determined using gas chromatography. Using the determined percentage of water, the minimum amount of the water-scavenger compound to be added to the millbase was calculated using the following equation:
Minimum weight of water scavenger=wt. mb.×wt. % H2 O×(1/MW
H2 O×mol.×MW scavenger/purity)
The determined amount of each moisture-scavenger was added to one millbase. Six millbases were prepared. Each of the five moisture-scavengers listed above were tested in a millbase with one millbase remaining untreated as a control. Once the millbases were treated, they were mixed continuously. At 30 minutes, 60 minutes, 120 minutes, 180 minutes, 240 minutes, and 300 minutes, samples of the millbase were removed and the amount of water remaining in the millbase was determined using gas chromatography. In each trial two moles of moisture scavenger was used for every mole of water. The results of 6 trials are summarized below in Table I and graphically represented in FIG. 1.

[2] = test system: four strains of Salmonella typhimurium; test: Ames Mutagenicity Assay; assay type: cell-based; settings: presence and absence of exogenous mammalian activation system
Method: The Ames Mutagenicity Assay was performed to determine the mutagenicity of the compound. The assay evaluates the mutagenic potential of a test substance by its ability to induce back mutations at selected loci of four strains of Salmonella typhimurium in the presence and absence of an exogenous mammalian activation system.

[3] = Acute oral toxicity (TSCA, 40 CFR Part 798, 798.1175); settings: rat, in vivo, dose levels 1.80, 1.50 and 1.30 g/kg, male and female Sprague-Dawley rats
Method: Based upon the standards of the Toxic Substance Control Act (TSCA), 40 CFR, Part 798, Subpart A, General Toxicity Testing, Acute Oral Toxicity, 798.1175, July 1989, 2-isopropyl-4-ethyl oxazolidine was evaluated for its potential to produce death following oral administration at dose levels of 1.80g/kg, 1.50 g/kg, and 1.30 g/kg, to male and female Sprague-Dawley rates.

[4] = test system: skin of New Zealand White Rabbits; test: Primary dermal irritation (TSCA, Section 798.4470); assay type: in vivo; settings: single topical application, TSCA guidelines
Method: Based upon the standards of the Toxic Substances Control Act (TSCA), 40 CFR, Part 798, Subpart E, Specific Organ/Tissue Toxicity, Primary Dermal Irritation, Section 798.4470, July 1989, 2-isopropyl-4-ethyl oxazolidine was evaluated for its potential to produce primary dermal irritation after a single topical application to the skin of New Zealand White Rabbits.

[5] = test system: male and female New Zealand White albino rabbits; test: Acute dermal toxicity (TSCA, 789.1100); assay type: in vivo; settings: topical, 2 g/Kg
Method: Based upon the standards of the Toxic Substance Control Act (TSCA), 40 CFR, Part 798, Subpart A, General Toxicity Testing, Acute Dermal Toxicity, 789.1100, July 1989, the compound was evaluated for its potential to produce systematic toxicity or death following topical application at a dose of 2 g/Kg in male and female New Zealand White albino rabbits.

[6] = Acute oral toxicity (FIFRA, 40 CFR 162); assay type: in vivo, Sprague-Dawley derived, albino rats; settings: rat, in vivo, undiluted, male and female Sprague-Dawley rats
Method: (§1) The acute oral toxicity of the compound was evaluated in compliance with the conditions specified in the Regulation for the Enforcement of Federal Insecticide, Fungicide and Rodenticide Act (40 CFR 162). The compound was administered undiluted at a dosage of 5.0 g/kg to one group of five male and five female, Sprague-Dawley derived, albino rats. […] Animals were weighed seven days after treatment. At the end of the 14-day observation period, the rats were weighed, killed, and given a gross necropsy.

[7] = test system: male and female Sprague-Dawley derived albino rats; test: Acute oral toxicity (FIFRA, 40 CFR 162); assay type: in vivo; settings: undiluted, 5.0 g/kg, rats
Method: as §1

[8] = Acute dermal toxicity (FIFRA, 40 CFR 162); assay type: in vivo, New Zealand White Rabbits; settings: rabbit, in vivo, topical or ocular, undiluted, male and female New Zealand White rabbits
Method: (§2) The acute dermal toxicity of the compound was evaluated in compliance with the conditions specified in the Regulation for the Enforcement of Federal Insecticide, Fungicide and Rodenticide Act (40 CFR 162). The compound was applied undiluted to the skin of one group of five male and five female New Zealand White Rabbits at a dosage of 2.0 g/kg for 24 hours. […] Animals were weighted 7 days after treatment. At the end of the 14day observation period, the rabbits were weighed, killed, and given a gross necropsy.

[9] = test system: skin of male and female New Zealand White Rabbits; test: Acute dermal toxicity (FIFRA, 40 CFR 162); assay type: in vivo; settings: undiluted, 2.0 g/kg for 24 hours, rabbits
Method: as §2

[10] = test system: intact skin of New Zealand White rabbits; test: Primary skin irritation (FIFRA, 40 CFR 162); assay type: in vivo
Method: The primary skin irritation of the compound was evaluated in compliance with the conditions specified in the Regulation for the Enforcement of Federal Insecticide, Fungicide and Rodenticide Act (40 CFR 162). A small amount of the compound (0.5 ml) was applied to an intact skin site on six New Zealand White rabbits (three males and three females) and allowed to remain in contact with the skin for 4 hours. The sites were scored for erythema and edema and checked for tissue damage 1/2 hour after the end of the application period (41/2 hour reading) and […] (24-hour reading) and at 48 and 72 hours.

[11] = test system: eye of New Zealand White rabbits; test: Primary eye irritation (FIFRA, 40 CFR 162); assay type: in vivo
Method: The primary […] irritation of the compound was evaluated in compliance with the conditions specified in the Regulation for the Enforcement of Federal Insecticide, Fungicide and Rodenticide Act (40 CFR 162). A small amount of the undiluted compound (0.1 ml) was applied to the right or left eye of six New Zealand White rabbits (one male and five females). The compound was allowed to remain without rinsing in the eyes of the animals. The eyes were graded for corneal changes, conjunctival changes, and changes in the iris one hour after application, and one, two, three, four, and seven days later.

[12] = 2 hrs, millbase heated to 60° C., two moles of scavenger per mole of water

## CCC1COC(C(C)C)N1 (stereo not drawn) [BBA, 4-ethyl-2-isopropyl oxazolidine]
[1]
  % H2O Remaining After 30 min.: .20%
  % H2O Remaining After 60 min.: .19%
  % H2O Remaining After 2 hrs.: .13%
[2]
  mutagenicity (Ames): non-mutagenic
[3]
  LD50: 1600 mg/kg
[4]
  primary dermal irritation classification: moderate irritant
[5]; TSCA guidelines
  acute dermal toxicity classification: non-toxic
[5]; male and female rabbits
  acute dermal toxicity: mortality: absence of mortality

## CCC12COC(C(C)C)N1C(C(C)C)OC2 (stereo not drawn) [EBA]
[1]
  % H2O Remaining After 30 min.: .08%
  % H2O Remaining After 60 min.: .08%
  % H2O Remaining After 2 hrs.: .06%
[2]
  mutagenicity (Ames): non-mutagenic
[6]
  LD50 at 336 h: > 5000 mg/kg
[7]; 14-day observation
  clinical changes: urine and/or fecal stains, mucoid feces, and alopecia
  deaths: No deaths occurred
[7]; end of 14-day observation
  gross necropsy findings: one rat with darkened and mottled lungs, otherwise no gross changes
[8]
  LD50 at 336 h: > 2000 mg/kg
[9]; 14-day observation
  clinical changes: No clinical changes were observed
  deaths: No deaths occurred
[9]; end of 14-day observation
  gross necropsy findings: no significant gross changes
[9]
  most frequently observed irritative effects: erythema and desquamation
[10]; 0.5 ml, 4 hours contact, 72 hours after application
  persistence of irritation: Mild irritation persisted 72 hours after application
[10]; rabbit, in vivo
  Primary Irritation Index: 2.7
  tissue damage (corrosion): No evidence of tissue damage (corrosion)
[11]; 0.1 ml undiluted, without rinsing, six rabbits
  eye irritation persistence: irritation persisting for seven days
[11]; rabbit, in vivo
  corneal opacity: corneal opacity persisting for less than seven days

## CC1(C)CC(N=C=O)CC(C)(CN=C=O)C1 (stereo not drawn) [IPDI, isophorone diisocyanate, reference compound]
[1]; [12]
  % H2O Remaining After 2 hrs.: < .02%

## Cc1ccc(S(=O)(=O)N=C=O)cc1 [PTSI, p-toluenesulfonyl isocyanate, reference compound]
[1]; 30 min, millbase heated to 60° C., two moles of scavenger per mole of water
  % H2O Remaining After 30 min.: < .05%
[1]; 60 min, millbase heated to 60° C., two moles of scavenger per mole of water
  % H2O Remaining After 60 min.: < .05%
[1]; [12]
  % H2O Remaining After 2 hrs.: < .05%
